Experimental findings from ChEMBL document CHEMBL3860035, “Isolation and Structure Elucidation of Cytotoxic Saccharothriolides D to F from a Rare Actinomycete Saccharothrix sp. and Their Structure-Activity Relationship” (J Nat Prod, 2016) are described below.

The IC50 is the concentration that gives 50% inhibition.

The nature of assay [1]: Cytotoxicity against human HT1080 cells assessed as reduction cell viability after 72 hrs by WST8-based colorimetric analysis. The format is functional. The settings on record: HT-1080, 72 h.
Assay [2] can be described thus: Cytotoxicity against human HT1080 cells. It is filed as functional, cell-based. To be noted: HT-1080.

Counter-ions that a name gives are not always drawn.

Turning to `C[C@@H]1[C@@H](Nc2ccccc2O)[C@@H](C)C(=O)[C@@H](C)[C@@H](O)[C@H](C)C(=O)O[C@@H]1c1cc(O)cc(O)c1`, the IC50 in assay [1] was found to be 29.2 µM.

As for `C[C@@H]1[C@@H](Nc2ccccc2C(=O)O)[C@@H](C)C(=O)[C@@H](C)[C@@H](O)CC(=O)O[C@@H]1c1cc(O)cc(O)c1`, the IC50 in assay [1] came to 66.4 µM.

On to `C[C@@H]1[C@@H](Nc2ccccc2O)[C@@H](C)C(=O)[C@@H](C)[C@@H](O)[C@@H](C)C(=O)O[C@@H]1c1cc(O)cc(O)c1`, for which, in assay [2], the midpoint of inhibition, the IC50, lay at 13.9 µM.

Regarding `COc1cccc2c1C(=O)c1c(O)c3c(c(O)c1C2=O)C[C@@](O)(C(=O)CO)C[C@@H]3O[C@H]1C[C@H](N)[C@H](O)[C@H](C)O1` [DOXORUBICIN HYDROCHLORIDE], the half-maximal inhibitory concentration (IC50) in assay [1] was 0.38 µM.
